Results from patent EP0428104A2, “Treatment of multi-drug resistant tumors with pyridyloxazole-2-ones” (MERRELL DOW PHARMACEUTICALS INC., priority 1989, dated 1991).

Tested on: CHO^R cells
Experiment: Reversal of multidrug resistance: cell growth in vinblastine resistant tumor cell line, cell number by Coulter counter
Assay type: cell-based
Details: 72 hr
Method: CHO^R cells were plated at a density of 1X10⁵/35mm dish and were allowed to grow overnight at 37°C in a CO₂ incubator. The medium was replaced with medium containing the compounds and vinblastine (0.2 µg/ml). The cells were allowed to grow for further 72 hr and the cell number was determined by Coulter counter after trypsinization. […]

SMILES	% Inhibition of Cell Growth Compound + VLB (compound 0.1 µg/ml plus vinblastine 0.2 µg/ml) [%]	inhibition at 0.1 µg/mL (compound 0.1 µg/ml, without VLB, read-out: % Inhibition of Cell Growth Compound Only) [%]	% Inhibition of Cell Growth Compound + VLB (compound 1 µg/ml plus vinblastine 0.2 µg/ml) [%]	inhibition at 1 µg/mL (compound 1 µg/ml, without VLB, read-out: % Inhibition of Cell Growth Compound Only) [%]	% Inhibition of Cell Growth Compound + VLB (compound 10 µg/ml plus vinblastine 0.2 µg/ml) [%]	inhibition at 10 µg/mL (compound 10 µg/ml, without VLB, read-out: % Inhibition of Cell Growth Compound Only) [%]	effect on cell growth (VLB alone at 0.2 µg/ml)
CCCc1[nH]c(=O)oc1-c1ccncc1 [4-PROPYL-5(4-PYRIDINYL)-2(3H)-OXAZOLONE, 4-propyl-5-(4-pyridinyl)-2(3H)-oxazolone]	6	0	22	0	82	55	
CC[C@]1(O)C[C@@H]2CN(CCc3c([nH]c4ccccc34)[C@@](C(=O)OC)(c3cc4c(cc3OC)N(C)[C@H]3[C@@](O)(C(=O)OC)[C@H](OC(C)=O)[C@]5(CC)C=CCN6CC[C@]43[C@@H]65)C2)C1 [VLB, vinblastine, reference compound]							did not have any effect on cell growth
